Patent US20040091479A1, “T-cell epitope of the papillomavirus l1 and e7 protein and use thereof in diagnostics and therapy” (priority 2000, published 2004)

Legend:
[1] = system: HPV18 CVLP-stimulated human T cells; experiment: Restimulating HPV18 CVLP-stimulated T cells with BLCL presenting Q38, Q39, Q46 or Q47 (example 13); format: cell-based; conditions: conclusion from FIG. 12 top right
Experimental: In analogy with example 6, human T cells (4×10^5) derived from a non-HLA-typed blood donor were stimulated with HPV18L1ΔCDIE71-53DI CVLPs and HPV18L1ΔCDIE71-60DI CVLPs and harvested.
The T cells were then restimulated, at 37° C. and in 100 μl of medium, with in each case 1 μg of peptide Q38, Q39, Q46 or Q47/ml and 10^5 antigen-presenting cells (donor-identical BLCL) in the presence of 10 IU of IL2/ml. Cells which were only incubated with buffer served as the negative control while cells which were incubated with the HPV18 L1 peptide pool or the E7 peptide pool served as positive controls.
(§1) 1 μl of monensin was added after an hour. The cells were then incubated at 37° C. for a further 5 hours. After that, the cells were fixed and permeabilized and stained with α-human CD8/APC, with α-human CD4/PerCP and with α-human IFNγ/FITC. The labeling of the cells was examined in a FACScan Calibur and the results of the measurements were analyzed using Cellquest software.

[2] = system: CVLP-stimulated T cells (CD4-positive); experiment: Restimulating HPV16 CVLP-stimulated T cells with BLCL presenting HPV16 peptide pools (example 7); format: cell-based, human; conditions: peptide common to two reactive HPV16 pools; CD4/IFNγ
Source text: (§2) In analogy with example 6, human T cells derived from a non-HLA-typed blood donor were stimulated with HPV16L1ΔC*E71-55 CVLPs and harvested.
The 20mer peptides P1 to 51 were assembled into peptide pools A to H and 1 to 7, respectively, in accordance with the following matrix
The T cells were then restimulated as described in example 6, fixed, permeabilized and stained. The analysis also took place as described in example 6.

[3] = system: peptide-stimulated CD8-positive murine T cells; experiment: Restimulating HPV16 L1 peptide-stimulated murine T cells with peptide-presenting JAWS cells (IFNγ FACScan); format: cell-based, C57BL/6 mice; conditions: for proportion of CD8-positive T cells reactive on the basis of IFNγ expression: 1 μg peptide/ml, JAWS cells, T cells of HPV16L1ΔC*E71-55 CVLP-inoculated C57BL/6 mice, FIG. 1; for T cell epitope assignment: conclusion from FIG. 1
Experimental: Murine T cells (4×10^5) derived from HPV16L1ΔC*E71-55 CVLP-inoculated C57BL/6 mice were stimulated for 5 weeks with HPV16 L1 peptide pools at 37° C., with the weekly addition of 1 μg of each individual peptide/ml and 10^5 antigen-presenting cells (irradiated splenocytes), and harvested. The cells were subsequently restimulated, in 100 μl of medium at 37° C., with 1 μg of the peptides given on the X axis in FIG. 1/ml and 10^5 antigen-presenting cells (JAWS) in the presence of 10 IU of IL2/ml. Cells which were only incubated with buffer serve as the negative control.
After an hour, 1 μl of monensin (300 μM) was added. The cells were incubated at 37° C. for a further 5 hours. The cells were then fixed and permeabilized and stained with α-mouse CD8/PE, with α-mouse CD4/cychrome and with α-mouse interferon γ/FITC. The labeling of the cells was analyzed in a FACScan caliber and the results of the measurements were analyzed using Cellquest software.

[4] = system: peptide-stimulated murine CD8 T cells; experiment: Restimulating HPV18 peptide-stimulated murine T cells with peptide-presenting RMA cells (example 16); format: cell-based; conditions: for reactive CD8-positive T cells (IFNγ, FACScan): RMA cells as antigen-presenting cells, FIG. 15; for T cell epitope assignment: conclusion from FIG. 15
Experimental: In analogy with example 5, murine T cells derived from CVLP-inoculated mice were stimulated with L1 or E7 peptide pools in the added presence of antigen-presenting cells. The cells were then restimulated with the peptides given on the X axis in FIG. 15 (Q3 and Q4 in the upper part of FIG. 15 and L1474E71-8, E72-11 and E71-8 in the lower part of FIG. 15) and also antigen-presenting cells (RMA). Cells which were only incubated with buffer served as the negative control.
The experiment was also analyzed in analogy with example 5, with the reactive CD8-positive cells being determined by means of antibody staining and FACScan.

[5] = system: peptide-stimulated murine CD8-positive T cells; experiment: Restimulating HPV18 peptide-stimulated murine T cells with peptide-presenting LKK cells (IFNγ FACScan); format: cell-based, C3H mice; conditions: for proportion of CD8-positive T cells reactive on the basis of IFNγ expression: 1 μg peptide/ml, LKK cells, T cells of HPV18 CVLP-inoculated C3H mice, FIG. 3, 4; for T cell epitope assignment: conclusion from FIG. 3, 4
Experimental: Murine T cells (4×10^5) derived from C3H mice inoculated with HPV18 L1ΔCDIE71-53DI CVLPs and HPV18 L1ΔCDIE71-6ODI CVLPs were stimulated for 5 weeks with HPV18 L1 or E7 peptide pools at 37° C., with the weekly addition of 1 μg of each individual peptide/ml and 10^5 antigen-presenting cells (irradiated splenocytes), and harvested. The cells were then restimulated, at 37° C. and in 100 μl of medium, with 1 μg of the peptides given on the X axis in FIG. 3/ml and 10^5 antigen-presenting cells (LKK) in the presence of 10 IU of IL2/ml. Cells which were only incubated with buffer served as the negative control.
1 μl of monensin (300 μm) was added after an hour. The cells were incubated at 37° C. for a further 5 hours. The cells were then fixed and permeabilized and stained with α-mouse CD8/PE, with α-mouse CD4/cychrome and with α-mouse interferony/FITC. The labeling of the cells was analyzed in a FACScan Calibur and the results of the measurement were analyzed using Cellquest software.

[6] = system: CVLP-stimulated CD8-positive T cells; experiment: Restimulating HPV16 CVLP-stimulated T cells with BLCL presenting HPV16 peptide pools (example 14); format: cell-based, human; conditions: peptide common to two reactive HPV16 pools; CD8/IFNγ
Experimental: as §2
The T cells were then restimulated, at 37° C. and in 100 μl of medium, with the peptide pools from example 7 and 10^5 antigen-presenting cells (donor-identical BLCL) in the presence of 10 IU of IL2/ml. Use was made, in this connection, of quantities of the peptide pools which were such that 1 μg/ml was added in the case of each individual peptide. Cells which were only incubated with buffer served as the negative control, while cells which were incubated with the HPV16 L1 or E7 peptide pool served as positive controls.
as §1

In the case of `CC[C@H](C)[C@H](NC(=O)[C@H](C)NC(=O)[C@@H](NC(=O)[C@H](CO)NC(=O)[C@H](CCC(N)=O)NC(=O)[C@@H](NC(=O)[C@H](Cc1ccccc1)NC(=O)[C@H](CCCNC(=N)N)NC(=O)[C@H](Cc1ccc(O)cc1)NC(=O)[C@@H](NC(=O)[C@H](CC(=O)O)NC(=O)[C@@H](NC(=O)[C@H](CC(C)C)NC(=O)[C@H](CO)NC(=O)[C@@H](NC(=O)[C@@H](NC(=O)[C@@H]1CCCN1C(=O)[C@@H]1CCCN1C(=O)[C@@H]1CCCN1C(=O)[C@@H]1CCCN1)[C@@H](C)O)[C@@H](C)O)C(C)C)[C@@H](C)O)C(C)C)C(C)C)C(=O)O` [Q38], the “T cell epitope assignment (cytotoxic)” value [1] was “contain cytotoxic T cell epitopes”.
For `CC[C@H](C)[C@H](NC(=O)[C@H](C)NC(=O)[C@@H](NC(=O)[C@H](CO)NC(=O)[C@H](CCC(N)=O)NC(=O)[C@@H](NC(=O)[C@H](Cc1ccccc1)NC(=O)[C@H](CCCNC(=N)N)NC(=O)[C@@H](N)Cc1ccc(O)cc1)C(C)C)C(C)C)C(=O)N[C@H](C(=O)N[C@@H](CS)C(=O)N[C@@H](CCC(N)=O)C(=O)N[C@@H](CCCCN)C(=O)N[C@@H](CC(=O)O)C(=O)N[C@@H](C)C(=O)N[C@@H](C)C(=O)N1CCC[C@H]1C(=O)N[C@@H](C)C(=O)N[C@@H](CCC(=O)O)C(=O)N[C@@H](CC(N)=O)C(=O)O)[C@@H](C)O` [Q39], the “T cell epitope assignment (cytotoxic)” value [1] was “contain cytotoxic T cell epitopes”.
“ASSNYFPTPSGSMVTSDAQI [P27, HPV16 L1 287-306]” was tested, and the “T cell epitope assignment” value [2] was “contain a T helper epitope”.
“DMVDTGFGAMDFTTLQANKS [P19, HPV16 L1 199-218]” was tested, and the “T cell epitope assignment” value [2] was “contain a T helper epitope”, the “proportion of CD8-positive T cells reactive on the basis of IFNγ expression” value (“proportion” for short) [3] was “brought about a restimulation” and the “T cell epitope assignment” value [3] was “contain H2b-restricted cytotoxic T cell epitopes”.
In the case of “FYHAGSSRLLTVGNPYFRVP [Q4, HPV18 L1 34-53]”, the “reactive CD8-positive T cells (IFNγ, FACScan)” value (“reactive CD8-positive T cells” for short) [4] was “brought about a restimulation” and the “T cell epitope assignment” value [4] was “contain an H2b-restricted cytotoxic T cell epitope”.
“GDSLFFYLRREQMFVRHLFN [P23, HPV16 L1 243-262]” was tested, and the “T cell epitope assignment” value [2] was “contain a T helper epitope”.
With “GDSMFFCLRREQLFARHFWN [Q23, HPV18 L1 243-262]” the “proportion” value [5] was “brought about a restimulation” and the “T cell epitope assignment” value [5] was “contain H2k-restricted cytotoxic T cell epitopes”.
For “GMHGPKATL [L1474E71-8, HPV18 L1 474 and E7 1-8]”, the “reactive CD8-positive T cells” value [4] was “brought about a restimulation” and the “T cell epitope assignment” value [4] was “contain an H2b-restricted cytotoxic T cell epitope”.
HGPKATLQDI [E72-11, HPV18 E7 2-11] was tested, and the “reactive CD8-positive T cells” value [4] was “brought about a restimulation” and the “T cell epitope assignment” value [4] was “contain an H2b-restricted cytotoxic T cell epitope”.
For “IFQLCKITLTADVMTYIHSM [P35, HPV16 L1 375-394]”, the “proportion” value [3] was “brought about a restimulation” and the “T cell epitope assignment” value [3] was “contain H2b-restricted cytotoxic T cell epitopes”.
“LELINTVIQDGDMVDTGFGA [P18, HPV16 L1 188-207]” was tested, and the “T cell epitope assignment” value [2] was “contain a T helper epitope”, the “proportion” value [3] was “brought about a restimulation” and the “T cell epitope assignment” value [3] was “contain H2b-restricted cytotoxic T cell epitopes”.
“LKKYTFWEVNLKEKFSADLD [P41, HPV16 L1 441-460]” was tested, and the “T cell epitope assignment” value [6] was “contain a cytotoxic T cell epitope”.
With MHGPKATL [E71-8, HPV18 E7 1-8] the “reactive CD8-positive T cells” value [4] was “brought about a restimulation” and the “T cell epitope assignment” value [4] was “contain an H2b-restricted cytotoxic T cell epitope”.
“MLDLQPETTDLYCYEQLNDS [P45, HPV16 E7 12-31]” was tested, and the “T cell epitope assignment” value [6] was “contain a cytotoxic T cell epitope”.
With “MSLWLPSEATVYLPPVPVSK [P1, HPV16 L1 1-20]” the “T cell epitope assignment” value [6] was “contain a cytotoxic T cell epitope”.
“NNNKILVPKVSGLQYRVFRI [P6, HPV16 L1 56-75]” was tested, and the “T cell epitope assignment” value [6] was “contain a cytotoxic T cell epitope”.
With “NTDDYVTRTSIFYHAGSSRL [Q3, HPV18 L1 23-42]” the “reactive CD8-positive T cells” value [4] was “brought about a restimulation” and the “T cell epitope assignment” value [4] was “contain an H2b-restricted cytotoxic T cell epitope”.
“PDYLQMSADPYGDSMFFCLR [Q22, HPV18 L1 232-251]” was tested, and the “proportion” value [5] was “brought about a restimulation” and the “T cell epitope assignment” value [5] was “contain H2k-restricted cytotoxic T cell epitopes”.
In the case of “PLGRKFLLQAGMHGDTPTLH [P43, HPV16 L1 463-473 and E7 1-9]”, the “proportion” value [3] was “brought about a restimulation”, the “T cell epitope assignment” value [3] was “contain H2b-restricted cytotoxic T cell epitopes” and the “T cell epitope assignment” value [6] was “contain a cytotoxic T cell epitope”.
“QLCLIGCKPPIGEHWGKGSP [P15, HPV16 L1 155-174]” was tested, and the “T cell epitope assignment” value [2] was “contain a T helper epitope”.
With “QPLGVGISGHPLLNKLDDTE [P11, HPV16 L1 111-130]” the “T cell epitope assignment” value [2] was “contain a T helper epitope”.
In the case of “SSADDLRAFQQLFLNTLSFV [Q51, HPV18 E7 78-97]”, the “proportion” value [5] was “brought about a restimulation” and the “T cell epitope assignment” value [5] was “contain H2k-restricted cytotoxic T cell epitopes”.
“STDEYVARTNIYYHAGTSRL [P3, HPV16 L1 23-42]” was tested, and the “proportion” value [3] was “brought about a restimulation”, the “T cell epitope assignment” value [3] was “contain H2b-restricted cytotoxic T cell epitopes” and the “T cell epitope assignment” value [6] was “contain a cytotoxic T cell epitope”.
“VGNPYFRVPAGGGNKQDIPK [Q5, HPV18 L1 45-64]” was tested, and the “proportion” value [5] was “brought about a restimulation” and the “T cell epitope assignment” value [5] was “contain H2k-restricted cytotoxic T cell epitopes”.
In the case of “VTVVDTTRSTNNSLCAAIST [P31, HPV16 L1 331-350]”, the “T cell epitope assignment” value [2] was “contain a T helper epitope”.
“WACVGVEVGRGQPLGVGISG [P10, HPV16 L1 100-119]” was tested, and the “T cell epitope assignment” value [2] was “contain a T helper epitope”.
In the case of “YCYEQLNDSSEEEDEIDGPA [P46, HPV16 E7 23-42]”, the “T cell epitope assignment” value [6] was “contain a cytotoxic T cell epitope”.
In the case of “YIKGSGSTANLASSNYFPTP [P26, HPV16 L1 276-295]”, the “T cell epitope assignment” value [2] was “contain a T helper epitope”.
